Converted amounts (≈) assume the structure as drawn.
Assays:
[1] = system: S. aureus R33 MRSA; assay type: cell-based, Staphylococcus aureus; details: R33
Method: (§1) Antibacterial activity of fermentation samples or purified samples was determined by Mueller-Hinton Agar diffusion bioassays using M. luteus ATCC 4698 as the indicator strain. Susceptibility testing (minimum inhibitory concentration [MIC]) for all aerobic organisms, with the exception of S. pneumoniae, was performed following the recommendations of CLSI. Susceptibility testing of S. pneumoniae was performed by two-fold serial dilutions in brain-heart-infusion broth supplemented with 50 μg/ml Ca^2+. Vancomycin was used as a reference antibiotic, and plates were incubated aerobically, with shaking, for 18–20 hr at 37°C with the MIC defined as the lowest concentration of drug that prevented visible growth.

[2] = system: S. aureus SH1000; assay type: cell-based, Staphylococcus aureus; details: SH1000
Method: as §1

[3] = system: M. luteus ATCC4698; assay type: cell-based, Micrococcus luteus; details: ATCC4698
Method: as §1

[4] = system: E. faecalis ATCC29212; assay type: cell-based; details: ATCC29212
Method: as §1

[5] = system: E. faecium 7131121 VRE; assay type: cell-based; details: 7131121 VRE
Method: as §1

[6] = system: E. faecium ATCC19579; assay type: cell-based; details: ATCC19579
Method: as §1

[7] = system: S. epidermidis NCTC11047; assay type: cell-based; details: NCTC11047
Method: as §1

[8] = system: S. pneumoniae BAA-255; assay type: cell-based, Streptococcus pneumoniae; details: BAA-255
Method: as §1

| SMILES | MIC S. aureus R33 MRSA [1] [µg/mL] | MIC S. aureus SH1000 [2] [µg/mL] | MIC M. luteus ATCC4698 [3] [µg/mL] | MIC E. faecalis ATCC29212 [4] [µg/mL] | MIC E. faecium 7131121 VRE [5] [µg/mL] | MIC E. faecium ATCC19579 [6] [µg/mL] | MIC S. epidermidis NCTC11047 [7] [µg/mL] | MIC S. pneumoniae BAA-255 [8] |
| --- | --- | --- | --- | --- | --- | --- | --- | --- |
| C=C1NC(=O)C2NC(=O)[C@H](CC(C)C)NC(=O)C(NC(=O)[C@@H]3CSC(C)C(NC(=O)[C@H](Cc4c[nH]c5ccccc45)NC(=O)C4NC(=O)[C@@H](N)CSC4C)C(=O)N[C@@H](CC(C)C)C(=O)N4CCC[C@H]4C(=O)NCC(=O)NCC(=O)NCC(=O)NCC(=O)N[C@@H](C(C)C)C(=O)N3)C(C)SC[C@H](NC(=O)[C@H](CCC(=O)O)NC1=O)C(=O)N[C@@H]([C@@H](C)CC)C(=O)NC=CSC2C (some centres unmarked) [F3W] | 8 (≈ 4.29 µM) | 16 (≈ 8.58 µM) | 0.5 (≈ 0.268 µM) | 32 (≈ 17.2 µM) | 32 (≈ 17.2 µM) | 16 (≈ 8.58 µM) | 8 (≈ 4.29 µM) | – |
| C=C1NC(=O)C2NC(=O)[C@H](CC(C)C)NC(=O)C(NC(=O)[C@@H]3CSC(C)C(NC(=O)[C@H](Cc4ccccc4)NC(=O)C4NC(=O)[C@@H](N)CSC4C)C(=O)N[C@@H](CC(C)C)C(=O)N4CCC[C@H]4C(=O)N[C@@H](C)C(=O)NCC(=O)NCC(=O)NCC(=O)N[C@@H](C(C)C)C(=O)N3)C(C)SC[C@H](NC(=O)[C@H](CCC(=O)O)NC1=O)C(=O)N[C@@H]([C@@H](C)CC)C(=O)NC=CSC2C (some centres unmarked) [G7A] | – | >64 | 64 (≈ 34.8 µM) | >64 | >64 | 64 (≈ 34.8 µM) | 64 (≈ 34.8 µM) | >64 µg/mL |
| C=C1NC(=O)C2NC(=O)[C@H](CC(C)C)NC(=O)C(NC(=O)[C@@H]3CSC(C)C(NC(=O)[C@H](Cc4ccccc4)NC(=O)C4NC(=O)[C@@H](N)CSC4C)C(=O)N[C@@H](CC(C)C)C(=O)N4CCC[C@H]4C(=O)N[C@@H](CC(N)=O)C(=O)NCC(=O)NCC(=O)NCC(=O)N[C@@H](C(C)C)C(=O)N3)C(C)SC[C@H](NC(=O)[C@H](CCC(=O)O)NC1=O)C(=O)N[C@@H]([C@@H](C)CC)C(=O)NC=CSC2C (some centres unmarked) [G7N] | – | 64 (≈ 34 µM) | < 4 | >64 | >64 | 64 (≈ 34 µM) | 32 (≈ 17 µM) | 16 µg/mL (≈ 8.5 µM) |
| C=C1NC(=O)C2NC(=O)[C@H](CC(C)C)NC(=O)C(NC(=O)[C@@H]3CSC(C)C(NC(=O)[C@H](Cc4ccccc4)NC(=O)C4NC(=O)[C@@H](N)CSC4C)C(=O)N[C@@H](CC(C)C)C(=O)N4CCC[C@H]4C(=O)NCC(=O)N[C@@H](CCC(N)=O)C(=O)NCC(=O)NCC(=O)N[C@@H](C(C)C)C(=O)N3)C(C)SC[C@H](NC(=O)[C@H](CCC(=O)O)NC1=O)C(=O)N[C@@H]([C@@H](C)CC)C(=O)NC=CSC2C (some centres unmarked) [G8Q] | 32 (≈ 16.9 µM) | >64 | 8 (≈ 4.22 µM) | >64 | >64 | >64 | – | – |
| C=C1NC(=O)C2NC(=O)[C@H](CC(C)C)NC(=O)C(NC(=O)[C@@H]3CSC(C)C(NC(=O)[C@H](Cc4ccccc4)NC(=O)C4NC(=O)[C@@H](N)CSC4C)C(=O)N[C@@H](CC(C)C)C(=O)N4CCC[C@H]4C(=O)NCC(=O)NCC(=O)N[C@@H](Cc4c[nH]cn4)C(=O)NCC(=O)N[C@@H](C(C)C)C(=O)N3)C(C)SC[C@H](NC(=O)[C@H](CCC(=O)O)NC1=O)C(=O)N[C@@H]([C@@H](C)CC)C(=O)NC=CSC2C (some centres unmarked) [G9H] | – | 32 (≈ 16.8 µM) | < 4 | >64 | >64 | 64 (≈ 33.6 µM) | 32 (≈ 16.8 µM) | 16 µg/mL (≈ 8.39 µM) |
| C=C1NC(=O)C2NC(=O)[C@H](CC(C)C)NC(=O)C(NC(=O)[C@@H]3CSC(C)C(NC(=O)[C@H](Cc4ccccc4)NC(=O)C4NC(=O)[C@@H](N)CSC4C)C(=O)N[C@@H](CC(C)C)C(=O)N4CCC[C@H]4C(=O)NCC(=O)NCC(=O)NCC(=O)N[C@@H](Cc4ccc(O)cc4)C(=O)N[C@@H](C(C)C)C(=O)N3)C(C)SC[C@H](NC(=O)[C@H](CCC(=O)O)NC1=O)C(=O)N[C@@H]([C@@H](C)CC)C(=O)NC=CSC2C (some centres unmarked) [G10Y] | 64 (≈ 33.1 µM) | >64 | < 4 | 32 (≈ 16.6 µM) | >64 | 64 (≈ 33.1 µM) | – | < 4 µg/mL |
| C=C1NC(=O)C2NC(=O)[C@H]([C@@H](C)CC)NC(=O)C(NC(=O)[C@@H]3CSC(C)C(NC(=O)[C@H](Cc4ccccc4)NC(=O)C4NC(=O)[C@@H](N)CSC4C)C(=O)N[C@@H](CC(C)C)C(=O)N4CCC[C@H]4C(=O)NCC(=O)NCC(=O)NCC(=O)NCC(=O)N[C@@H](C(C)C)C(=O)N3)C(C)SC[C@H](NC(=O)[C@H](CCC(=O)O)NC1=O)C(=O)N[C@@H]([C@@H](C)CC)C(=O)NC=CSC2C (some centres unmarked) [L14I] | 8 (≈ 4.38 µM) | 32 (≈ 17.5 µM) | – | 32 (≈ 17.5 µM) | – | 16 (≈ 8.76 µM) | – | 1 µg/mL (≈ 0.548 µM) |
| C=C1NC(=O)C2NC(=O)[C@H](CCSC)NC(=O)C(NC(=O)[C@@H]3CSC(C)C(NC(=O)[C@H](Cc4ccccc4)NC(=O)C4NC(=O)[C@@H](N)CSC4C)C(=O)N[C@@H](CC(C)C)C(=O)N4CCC[C@H]4C(=O)NCC(=O)NCC(=O)NCC(=O)NCC(=O)N[C@@H](C(C)C)C(=O)N3)C(C)SC[C@H](NC(=O)[C@H](CCC(=O)O)NC1=O)C(=O)N[C@@H]([C@@H](C)CC)C(=O)NC=CSC2C (some centres unmarked) [L14M] | 16 (≈ 8.68 µM) | 32 (≈ 17.4 µM) | 2 (≈ 1.08 µM) | 64 (≈ 34.7 µM) | 64 (≈ 34.7 µM) | 64 (≈ 34.7 µM) | – | 4 µg/mL (≈ 2.17 µM) |
| C=C1NC(=O)C2NC(=O)[C@H](C(C)C)NC(=O)C(NC(=O)[C@@H]3CSC(C)C(NC(=O)[C@H](Cc4ccccc4)NC(=O)C4NC(=O)[C@@H](N)CSC4C)C(=O)N[C@@H](CC(C)C)C(=O)N4CCC[C@H]4C(=O)NCC(=O)NCC(=O)NCC(=O)NCC(=O)N[C@@H](C(C)C)C(=O)N3)C(C)SC[C@H](NC(=O)[C@H](CCC(=O)O)NC1=O)C(=O)N[C@@H]([C@@H](C)CC)C(=O)NC=CSC2C (some centres unmarked) [L14V] | 16 (≈ 8.83 µM) | 32 (≈ 17.7 µM) | – | 64 (≈ 35.3 µM) | >64 | 64 (≈ 35.3 µM) | 16 (≈ 8.83 µM) | 4 µg/mL (≈ 2.21 µM) |
| C=C1NC(=O)C2NC(=O)[C@H](CC(C)C)NC(=O)C(NC(=O)[C@@H]3CSC(C)C(NC(=O)[C@H](Cc4ccccc4)NC(=O)C4NC(=O)[C@@H](N)CSC4C)C(=O)N[C@@H](CC(C)C)C(=O)N[C@@H](Cc4c[nH]cn4)C(=O)NCC(=O)NCC(=O)NCC(=O)NCC(=O)N[C@@H](C(C)C)C(=O)N3)C(C)SC[C@H](NC(=O)[C@H](CCC(=O)O)NC1=O)C(=O)N[C@@H]([C@@H](C)CC)C(=O)NC=CSC2C (some centres unmarked) [P6H] | – | 64 (≈ 34.3 µM) | 16 (≈ 8.57 µM) | >64 | >64 | >64 | – | 64, >64 μg/ml |
| CC[C@H](C)[C@@H]1NC(=O)[C@@H]2CSC(C)C(NC(=O)[C@@H]3CSC(C)C(NC(=O)[C@H](Cc4ccccc4)NC(=O)C4NC(=O)[C@@H](N)CSC4C)C(=O)N[C@@H](CC(C)C)C(=O)N4CCC[C@H]4C(=O)NCC(=O)NCC(=O)NCC(=O)NCC(=O)N[C@@H](C(C)C)C(=O)N3)C(=O)N[C@@H](CC(C)C)C(=O)NC(C(=O)NCC(=O)N[C@@H](CCC(=O)O)C(=O)N2)C(C)SC=CNC1=O (some centres unmarked) [S16G] | 16 (≈ 8.82 µM) | 32 (≈ 17.6 µM) | – | 64 (≈ 35.3 µM) | 64 (≈ 35.3 µM) | 32 (≈ 17.6 µM) | 16 (≈ 8.82 µM) | 2 µg/mL (≈ 1.1 µM) |
| C=C1NC(=O)C2NC(=O)[C@H](CC(C)C)NC(=O)C(NC(=O)[C@@H]3CSC(C)C(NC(=O)[C@H](Cc4ccccc4)NC(=O)C4NC(=O)[C@@H](N)CSC4C)C(=O)N[C@@H](CC(C)C)C(=O)N4CCC[C@H]4C(=O)NCC(=O)NCC(=O)NCC(=O)NCC(=O)N[C@@H](CC(C)C)C(=O)N3)C(C)SC[C@H](NC(=O)[C@H](CCC(=O)O)NC1=O)C(=O)N[C@@H]([C@@H](C)CC)C(=O)NC=CSC2C (some centres unmarked) [V11L] | 32 (≈ 17.4 µM) | 64 (≈ 34.8 µM) | – | 64 (≈ 34.8 µM) | 32 (≈ 17.4 µM) | 32 (≈ 17.4 µM) | 16 (≈ 8.69 µM) | – |
| C=C1NC(=O)C2NC(=O)[C@H](CC(C)C)NC(=O)C(NC(=O)[C@@H]3CSC(C)C(NC(=O)[C@H](Cc4ccccc4)NC(=O)C4NC(=O)[C@@H](N)CSC4C)C(=O)N[C@@H](CC(C)C)C(=O)N4CCC[C@H]4C(=O)NCC(=O)NCC(=O)NCC(=O)NCC(=O)N[C@@H](CCSC)C(=O)N3)C(C)SC[C@H](NC(=O)[C@H](CCC(=O)O)NC1=O)C(=O)N[C@@H]([C@@H](C)CC)C(=O)NC=CSC2C (some centres unmarked) [V11M] | 32 (≈ 17.2 µM) | 64 (≈ 34.4 µM) | 16 (≈ 8.61 µM) | 64 (≈ 34.4 µM) | 64 (≈ 34.4 µM) | 32 (≈ 17.2 µM) | – | 32 µg/mL (≈ 17.2 µM) |

From PMC2706954, “Dissecting Structural and Functional Diversity of the Lantibiotic Mersacidin” (Chemistry & Biology, 2009)
